Each molecule was assayed against T1, Type-1 15-PGDH (Homo sapiens, UniProt P15428) (assay: Test on type-1 15-PGDH (spectrophotometric enzyme inhibition)). Conditions: Tris buffer pH 7.4, 1.5 mM β-NAD, 50 μM prostaglandin E2, 37° C., 340 nm; read-out: IC50dh (concentration that reduces the enzymatic activity of 15-PGDH by 50%).
T1 construct: made in house
T1 sequence (P15428 1-266): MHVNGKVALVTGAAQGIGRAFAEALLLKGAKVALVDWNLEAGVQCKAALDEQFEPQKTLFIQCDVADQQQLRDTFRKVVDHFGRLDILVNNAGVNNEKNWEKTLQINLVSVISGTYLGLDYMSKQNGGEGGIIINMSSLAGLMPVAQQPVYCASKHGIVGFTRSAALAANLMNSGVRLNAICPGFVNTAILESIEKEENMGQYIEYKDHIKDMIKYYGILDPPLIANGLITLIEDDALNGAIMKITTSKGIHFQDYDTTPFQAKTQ
Assay type: biochemical
Procedure: The enzyme 15-PGDH is obtained as disclosed in FR 02/05067, assigned to the assignee hereof, in suspension in a medium adjusted to a concentration of 0.3 mg/ml and then blocked at −80° C. For the requirements of the test, this suspension is defrosted and stored in ice.
Furthermore, a 100 mM, pH=7.4, Tris buffer comprising 0.1 mM of dithiothreitol (D5545, Sigma-Aldrich, L'isle D'Abeau Chesne, BP 701, 38297, Saint Quentin Fallavier) 1.5 mM of β-NAD (N6522, Sigma-Aldrich, L'isle D'Abeau Chesne, BP 701, 38297, Saint Quentin Fallavier) and 50 μM of prostaglandin E2 (P4172, Sigma-Aldrich, L'isle D'Abeau Chesne, BP 701, 38297, Saint Quentin Fallavier) is prepared.
0.965 ml of this buffer (adjusted beforehand to 37° C.) is introduced into the cell of a spectrophotometer (Perkin-Elmer, Lambda 2) thermostatically controlled at 37° C., the measuring wavelength of which is adjusted to 340 nm. 0.035 ml of enzymatic suspension at 37° C. is introduced into the cell concomitantly with the recording (corresponding to an increase in the optical density at 340 nm). The maximum reaction rate is recorded.
The test values (comprising compound 1) are compared with the control value (without compound 1); the results shown represent either the percentage of inhibition of the enzymatic activity of 15-PGDH for a given concentration of compound of formula (I) or the concentration at which compound 1 reduces the enzymatic activity of 15-PGDH by 50%, namely IC50dh.

| IC50 [µM] | Structure (SMILES) |
| --- | --- |
| 8.2 | O=C1NC(=O)C(Cc2ccc(-c3cccc(C(F)(F)F)c3)o2)S1 (stereo not drawn) [Compound 2, 5-[5-(3-(trifluoromethyl)phenyl)fur-2-ylmethyl]-1,3-thiazolidine-2,4-dione] |
| 5.2 | O=C1NC(=O)C(Cc2ccc(-c3cccc(Cl)c3)o2)S1 (stereo not drawn) [Compound 3, 5-{[5-(3-chlorophenyl)-2-furyl]methyl}-1,3-thiazolidine-2,4-dione] |
| 17.7 | O=C1NC(=O)C(Cc2ccc(-c3ccc(C(F)(F)F)cc3)s2)S1 (stereo not drawn) [Compound 5, 5-({5-[4-(trifluoromethyl)phenyl]thien-2-yl}methyl)-1,3-thiazolidine-2,4-dione] |
| 37.6 | O=C1NC(=O)C(Cc2ccc(-c3cccc(CO)c3)s2)S1 (stereo not drawn) [Compound 7, 5-({5-[3-(Hydroxymethyl)phenyl]-2-thienyl}methyl)-1,3-thiazolidine-2,4-dione] |

| Structure (SMILES) | IC50 [µM] |
| --- | --- |
| O=C1N=C(O)C(Cc2ccc(-c3ccc(C(=O)O)cc3)o2)S1 (stereo not drawn) [Compound 1, 4-{5-[(2,4-dioxo-1,3-thiazolidin-5-yl)methyl]-2-furyl}benzoic acid] | 3 |
| CCOC(=O)c1cccc(-c2ccc(CC3SC(=O)NC3=O)o2)c1 (stereo not drawn) [Compound 4, Ethyl 3-{5-[(2,4-dioxo-1,3-thiazolidin-5-yl)methyl]-2-furyl}benzoate] | 4.6 |

— patent US20070077215A1, “Administration of phenylfurymethylthiazolidine-2,4-dione or phenylthienymethylthiazolidine-2,4-dione compounds for promoting and/or inducing and/or stimulating the pigmentation of keratinous substances and/or limiting their depigmentation and/or their whitening” (L'OREAL, priority 2005, published 2007)
